Data from US12031897B2, “Target-locking single-molecule nanoscopy” (Memorial Sloan Kettering Cancer Center, priority 2019, dated 2024).
“Also recorded” adds a separate entry of the source.

How the values were obtained:
[1] = system: Pou5f1 transcription site (MCP-mNeonGreen nascent RNA); experiment: MCP-mNeonGreen nascent transcription at the endogenous Pou5f1 locus in mESCs (live-cell imaging); assay type: cell-based, mouse; conditions: for MCP-mNeonGreen exponential decay time: Pou5f1, mESCs, 10 μM flavopiridol, 10 μM triptolide or 1 μM JQ1, mean±S.D.
Experimental: All the mESCs were cultured and maintained in +2i media with appropriate selection drugs on 0.1% gelatin-coated dishes, at 37° C. in a humidified 5% CO2 incubator. +2i media contain D-MEM (Thermo Fisher Scientific 10313021), 15% fetal bovine serum (Gemini Bio 100-500), 0.1 mM β-mercaptoethanol (Thermo Fisher Scientific 21985023), 2 mM L-alanyl-L-glutamine (Thermo Fisher Scientific 35050079), 1×MEM nonessential amino acids (Thermo Fisher Scientific 11140076), 1000 U/mL LIF (Millipore ESG1107), […] (Millipore 361559) and 1 μM PD0325901 (Axon Medichem 1408). OMG and NMG SNAP-Rpb1 cells were cultured with +2i media plus 3 μg/ml α-amanitin.
Before imaging, cells were seeded onto 8-chamber coverglass (LabTek, 155411) coated with 5 μg/ml laminin (BioLamina LN511), in −2i media (OMG) or +2i media (NMG) and appropriate drugs. For SiR staining, cells were labeled with media containing 0.3 μM SiR-BG for 10 mins, at 37° C., followed by three washes with new media.
Wide-Field Cell Imaging Experiments. Live cell imaging experiments (tdPCP-EGFP and MCP-mNeonGreen tracking). For time-lapse imaging, a z-stack of 11 frames at 1 frame/second was acquired, by stepping the sample along the z-axis using the nanopositioning stage (250 nm steps). The CCD data were analyzed using IDL 6.4 (ITTVIS). Maximum projection images were calculated for each stack, and the resulting 11 sec/frame movie was used to track the intensities of individual tdPCP-EGFP-tagged transcription sites. A particle tracking routine (Crocker and Grier, 1996) was used for finding the positions of the transcription site in each frame and linking them into a 2D trajectory. The intensity trace of tdPCP-EGFP at the transcription site was corrected for photo-bleaching using the time trace of tdPCP-EGFP in a nearby nuclear region. The auto-correlation function was calculated (for the tdPCP-EGFP fluctuation analysis), or the data were imported in Origin 8.5.0 (OriginLab) and the trace fitted to a single-exponential decay (for the transcription inhibition experiments).

[2] = system: Pol II (SiR-Rpb1) at the Pou5f1 transcription site; experiment: SiR-Rpb1 (Pol II) dynamics at Pou5f1 after drug addition (target-locking); assay type: cell-based, mouse; conditions: for Rpb1 exponential decay time from fits: Pou5f1, 10 μM flavopiridol, 10 μM triptolide or 1 μM JQ1; for Pol II signal at Pou5f1 upon transcription inhibition: paralleled by nascent RNA loss
Experimental: The images obtained from the Ixon3 897 detector (e.g., detection system 150) were analyzed on the fly by non-linear least-squares fitting of a 21×21 pixel ROI to a 2D Gaussian peak function implemented in LabVIEW. Axial localization was achieved either though the degree of defocus or based on astigmatism. The coordinates returned by the 2D Gaussian peak fit were passed onto a PID controller that calculated the desired position correction that was commanded to the nanopositioning stage controller. The LabVIEW application ran at sustained speeds of up to 30 frames/second. Before imaging, cells were seeded onto 8-chamber coverglass (LabTek, 155411) coated with 5 μg/ml laminin (BioLamina LN511), in −2i media (OMG) or +2i media (NMG) and appropriate drugs. For SiR staining, cells were labeled with media containing 0.3 μM SiR-BG for 10 mins, at 37° C., followed by three washes with new media. OMG-1 or NMG mESCs (1×106) were transfected with 10 μg PB007-EF1α-Flag-SNAP-Rpb1 (αAmR) and 1 μg pCMV-hyPBase vectors using Lipofectamine 2000 (Invitrogen 11668019). Cells were subjected to 3 mg/ml α-amanitin 2 days post-transfection. Individual α-amanitin-resistant colonies were picked after ˜2 weeks, expanded, labeled with SiR-BG and imaged.

[3] = system: Med22 foci at the Pou5f1 locus; experiment: Med22 cluster signal at Pou5f1 upon inhibition (live-cell confocal/STED scans); assay type: cell-based, mouse; conditions: 1 μM JQ1 or 10 μM Flavopiridol
Experimental: For real-time confocal and STED imaging, example implementations may program the wave generator to scan 2 μm×2 μm or 1 μm×1 μm xy areas in 0.8 sec or 0.2 sec respectively. 3D scanning was performed (via, e.g., detection system 150) by acquiring 5 xy scans while moving the stage by 0.5 μm in z between scans. TTL pulses corresponding to single-photon events from the APDs, together with the trigger pulses from the wave generator were detected using a field-programmable gate array (FPGA) data acquisition system (National Instruments, PCIe-7852R).

[4] = system: CMV mini-gene transcription site (tdPCP-EGFP nascent RNA); experiment: tdPCP-EGFP nascent transcription dynamics at the CMV mini-gene after inhibitor addition (wide-field live-cell imaging); assay type: cell-based, human; conditions: U-2 OS cells, after adding 10 μM flavopiridol or 10 μM triptolide, individual transcription site traces, mean±S.D.
Description: It can be observed that Pol II accumulates at sites of active nascent transcription. Example implementations may first image Pol II dynamics relative to transcription from a single promoter in a synthetic “mini-gene” system, stably integrated as single copies in U-2 OS cells (FIGS. 4A, 11A-11C). Example implementations may track nascent RNA production via phage PP7-derived stem-loops (24×PP7) and a tandem-dimer phage coat protein EGFP fusion (tdPCP-EGFP).
It can be observed in various embodiments that target-locking enables tracking Pol II dynamics during the transcription cycle. […]
Wide-Field Cell Imaging Experiments. […] The CCD data were analyzed using IDL 6.4 (ITTVIS). Maximum projection images were calculated for each stack, and the resulting 11 sec/frame movie was used to track the intensities of individual tdPCP-EGFP-tagged transcription sites. […] The auto-correlation function was calculated (for the tdPCP-EGFP fluctuation analysis), or the data were imported in Origin 8.5.0 (OriginLab) and the trace fitted to a single-exponential decay (for the transcription inhibition experiments).

SMILES | Hill equation n, relative MCP signal vs. [JQ1] ([1]; Pou5f1) | MCP-mNeonGreen exponential decay time [1] [s] | response of individual Pou5f1 transcription sites at intermediate inhibitor concentration ([1]; intermediate [A-485] or [JQ1]) | Pou5f1 transcription activity ([1]; upon JQ1 (FIG. 7A, 1 μM)) | Rpb1 exponential decay time from fits [2] [s] | Med22 signal at Pou5f1 upon inhibition [3] | tdPCP-EGFP exponential decay time [4] [s] | Pol II signal at Pou5f1 upon transcription inhibition [2]
Cc1sc2c(c1C)C(c1ccc(Cl)cc1)=N[C@@H](CC(=O)OC(C)(C)C)c1nnc(C)n1-2 [JQ1] | 1.1±0.7 | 300 ± 136 | decays to a new finite plateau; also recorded: attenuated output, without completely shutting down | abruptly abolishes | 310 ± 123 | drop close to noise-floor |  | 
CN1CC[C@H](c2c(O)cc(O)c3c(=O)cc(-c4ccccc4Cl)oc23)[C@H](O)C1 [flavopiridol] |  | 378 ± 193 |  |  | 347 ± 104 | not lost | 132 ± 38 | gradual Pol II signal loss
CC(C)[C@]12O[C@H]1[C@@H]1O[C@]13[C@]1(O[C@H]1C[C@H]1C4=C(CC[C@@]13C)C(=O)OC4)[C@@H]2O [triptolide] |  | 378 ± 115 |  |  | 565 ± 109 |  | 179 ± 57 | gradual Pol II signal loss
